Results reported in patent US11919901B2 (Syndax Pharmaceuticals, Inc., priority 2021, dated 2024).

Target: Menin-MLL (Homo sapiens (Human), UniProt O00255)
Assay: Determination of binding constants (Ki) to Menin-MLL (HTRF)
Details: HTRF, 0.25 nM H-FL-Menin, 3.2 nM FITC-MLL-4-43, 24 hr incubation; for Ki: read-out: Menin-MLL Ki HTRF Assay: Ki

Sequence of Menin-MLL (O00255 whole entry): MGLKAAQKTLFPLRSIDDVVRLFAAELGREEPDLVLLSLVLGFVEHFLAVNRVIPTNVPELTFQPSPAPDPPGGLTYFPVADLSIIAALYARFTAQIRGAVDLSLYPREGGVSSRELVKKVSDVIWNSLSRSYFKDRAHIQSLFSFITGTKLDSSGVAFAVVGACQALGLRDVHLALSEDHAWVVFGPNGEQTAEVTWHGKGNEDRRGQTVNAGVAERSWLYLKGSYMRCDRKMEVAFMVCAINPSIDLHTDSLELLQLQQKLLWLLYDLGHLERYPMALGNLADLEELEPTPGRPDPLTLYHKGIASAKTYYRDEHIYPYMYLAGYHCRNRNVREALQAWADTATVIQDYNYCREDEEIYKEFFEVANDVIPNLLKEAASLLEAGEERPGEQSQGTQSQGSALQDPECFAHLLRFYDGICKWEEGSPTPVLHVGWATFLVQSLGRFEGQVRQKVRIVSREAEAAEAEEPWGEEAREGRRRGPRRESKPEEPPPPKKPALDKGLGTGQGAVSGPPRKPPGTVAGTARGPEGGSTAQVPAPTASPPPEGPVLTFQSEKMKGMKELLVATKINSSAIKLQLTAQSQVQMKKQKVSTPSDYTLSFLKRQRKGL

SMILES	EC50 [nM]	Ki [nM]
C[C@@H]1COC[C@@H](C)N1C(=O)c1cc(F)ccc1Oc1cncnc1N1CC2(CCN(C[C@@H]3CC[C@@H](NS(C)(=O)=O)CO3)CC2)C1 [Compound 28, N-((3R,6S)-6-((2-(5-(2-((3R,5R)-3,5-dimethylmorpholine-4-carbonyl)-4-fluorophenoxy)pyrimidin-4-yl)-2,7-diazaspiro[3.5]nonan-7-yl)methyl)tetrahydro-2H-pyran-3-yl)methanesulfonamide]	< 50	< 1
CCS(=O)(=O)N[C@@H]1CC[C@@H](CN2CCC3(CC2)CN(c2ncncc2Oc2ccc(F)cc2C(=O)N2[C@H](C)COC[C@H]2C)C3)OC1 [Compound 29]	< 50	< 1
CC(C)S(=O)(=O)N[C@@H]1CC[C@@H](CN2CCC3(CC2)CN(c2ncncc2Oc2ccc(F)cc2C(=O)N2[C@H](C)COC[C@H]2C)C3)OC1 [Compound 30]	< 50	< 1
C[C@@H]1COC[C@@H](C)N1C(=O)c1cc(F)ccc1Oc1cncnc1N1CC2(CCN(C[C@@H]3CC[C@@H](NS(=O)(=O)C4CC4)CO3)CC2)C1 [Compound 31, N-((3R,6S)-6-((2-(5-(2-((3R,5R)-3,5-dimethylmorpholine-4-carbonyl)-4-fluorophenoxy)pyrimidin-4-yl)-2,7-diazaspiro[3.5]nonan-7-yl)methyl)tetrahydro-2H-pyran-3-yl)cyclopropanesulfonamide]	< 50	< 1
C[C@@H]1COC[C@@H](C)N1C(=O)c1cc(F)ccc1Oc1cncnc1N1CC2(CCN(C[C@@H]3CC[C@@H](NS(=O)(=O)C4COC4)CO3)CC2)C1 [Compound 32]	< 50	< 1
CCS(=O)(=O)N[C@@H]1CC[C@@H](CN2CCC3(CC2)CN(c2ncncc2Oc2ccc(F)cc2C(=O)N(CCOC)C(C)C)C3)OC1 [Compound 35, 2-((4-(7-(((2S,5R)-5-(ethylsulfonamido)tetrahydro-2H-pyran-2-yl)methyl)-2,7-diazaspiro[3.5]nonan-2-yl)pyrimidin-5-yl)oxy)-5-fluoro-N-isopropyl-N-(2-methoxyethyl)benzamide]	< 50	< 1
CCS(=O)(=O)N[C@@H]1CC[C@@H](CN2CCC3(CC2)CN(c2ncncc2Oc2ccc(F)cc2C(=O)N2[C@H](C)CCC[C@@H]2C)C3)OC1 [Compound 36, N-((3R,6S)-6-((2-(5-(2-((2S,6R)-2,6-dimethylpiperidine-1-carbonyl)-4-fluorophenoxy)pyrimidin-4-yl)-2,7-diazaspiro[3.5]nonan-7-yl)methyl)tetrahydro-2H-pyran-3-yl)ethanesulfonamide]	< 50	< 1
CCCNC(=O)N[C@@H]1CC[C@@H](CN2CCC3(CC2)CN(c2ncncc2Oc2ccc(F)cc2C(=O)N(CC)C(C)C)C3)OC1 [Compound 38, N-ethyl-5-fluoro-N-isopropyl-2-((4-(7-(((2S,5R)-5-(3-propylureido)tetrahydro-2H-pyran-2-yl)methyl)-2,7-diazaspiro[3.5]nonan-2-yl)pyrimidin-5-yl)oxy)benzamide]	50 to 100	1 to 1.5
CCNC(=O)N[C@@H]1CC[C@@H](CN2CCC3(CC2)CN(c2ncncc2Oc2ccc(F)cc2C(=O)N(CC)C(C)C)C3)OC1 [Compound 39, N-ethyl-2-((4-(7-(((2S,5R)-5-(3-ethylureido)tetrahydro-2H-pyran-2-yl)methyl)-2,7-diazaspiro[3.5]nonan-2-yl)pyrimidin-5-yl)oxy)-5-fluoro-N-isopropylbenzamide]	< 50	< 1
CCN(C(=O)c1cc(F)ccc1Oc1cncnc1N1CC2(CCN(C[C@@H]3CC[C@@H](NC(=O)NCC(F)F)CO3)CC2)C1)C(C)C [Compound 41, 2-((4-(7-(((2S,5R)-5-(3-(2,2-difluoroethyl)ureido)tetrahydro-2H-pyran-2-yl)methyl)-2,7-diazaspiro[3.5]nonan-2-yl)pyrimidin-5-yl)oxy)-N-ethyl-5-fluoro-N-isopropylbenzamide]	50 to 100	< 1
CCN(C(=O)c1cc(F)ccc1Oc1cncnc1N1CC2(CCN(C[C@@H]3CC[C@@H](NC(=O)NCC4CC4)CO3)CC2)C1)C(C)C [Compound 42, 2-((4-(7-(((2S,5R)-5-(3-(cyclopropylmethyl)ureido)tetrahydro-2H-pyran-2-yl)methyl)-2,7-diazaspiro[3.5]nonan-2-yl)pyrimidin-5-yl)oxy)-N-ethyl-5-fluoro-N-isopropylbenzamide]	> 100	1 to 1.5
CCS(=O)(=O)N[C@@H]1CC[C@@H](CN2CCC3(CC2)CN(c2ncncc2Oc2ccc(F)cc2C(=O)N(C(C)C)[C@@H]2CCOC2)C3)OC1 [Compound 46, 2-((4-(7-(((2S,5R)-5-(ethylsulfonamido)tetrahydro-2H-pyran-2-yl)methyl)-2,7-diazaspiro[3.5]nonan-2-yl)pyrimidin-5-yl)oxy)-5-fluoro-N-isopropyl-N-((R)-tetrahydrofuran-3-yl)benzamide]	< 50	< 1
CCS(=O)(=O)N[C@@H]1CC[C@@H](CN2CCC3(CC2)CN(c2ncncc2Oc2ccc(F)cc2C(=O)N(C(C)C)C2COC2)C3)OC1 [Compound 48, 2-((4-(7-(((2S,5R)-5-(ethylsulfonamido)tetrahydro-2H-pyran-2-yl)methyl)-2,7-diazaspiro[3.5]nonan-2-yl)pyrimidin-5-yl)oxy)-5-fluoro-N-isopropyl-N-(oxetan-3-yl)benzamide]	< 50	< 1
CCS(=O)(=O)N[C@@H]1CC[C@@H](CN2CCC3(CC2)CN(c2ncncc2Oc2ccc(F)cc2C(=O)N(C(C)C)[C@H]2C[C@@H](O)C2)C3)OC1 [Compound 50, 2-((4-(7-(((2S,5R)-5-(ethylsulfonamido)tetrahydro-2H-pyran-2-yl)methyl)-2,7-diazaspiro[3.5]nonan-2-yl)pyrimidin-5-yl)oxy)-5-fluoro-N-((1s,3s)-3-hydroxycyclobutyl)-N-isopropylbenzamide]	< 50	< 1
COCCN(C(=O)c1cc(F)ccc1Oc1cncnc1N1CC2(CCN(C[C@@H]3CC[C@@H](NS(=O)(=O)C4CC4)CO3)CC2)C1)C(C)C [Compound 51, 2-((4-(7-(((2S,5R)-5-(cyclopropanesulfonamido)tetrahydro-2H-pyran-2-yl)methyl)-2,7-diazaspiro[3.5]nonan-2-yl)pyrimidin-5-yl)oxy)-5-fluoro-N-isopropyl-N-(2-methoxyethyl)benzamide]	< 50	–
CC(C)N(C)C(=O)c1cc(F)ccc1Oc1cncnc1N1CC2(CCN(C[C@@H]3CC[C@@H](NS(=O)(=O)c4ccn(C)n4)CO3)CC2)C1 [Compound 53, Fluoro-N-isopropyl-N-methyl-2-((4-(7-(((2S,5R)-5-((1-methyl-1H-pyrazole)-3-sulfonamido)tetrahydro-2H-pyran-2-yl)methyl)-2,7-diazaspiro[3.5]nonan-2-yl)pyrimidin-5-yl)oxy)benzamide]	–	< 1
Cc1nc(S(=O)(=O)N[C@@H]2CC[C@@H](CN3CCC4(CC3)CN(c3ncncc3Oc3ccc(F)cc3C(=O)N(C)C(C)C)C4)OC2)cs1 [Compound 54, 5-Fluoro-N-isopropyl-N-methyl-2-((4-(7-(((2S,5R)-5-((2-methylthiazole)-4-sulfonamido)tetrahydro-2H-pyran-2-yl)methyl)-2,7-diazaspiro[3.5]nonan-2-yl)pyrimidin-5-yl)oxy)benzamide]	–	< 1
CCN(C(=O)c1cc(F)ccc1Oc1cncnc1N1CC2(CCN(C[C@@H]3CC[C@@H](NS(=O)(=O)c4ccc(C)cc4)CO3)CC2)C1)C(C)C [Compound 55, N-Ethyl-5-fluoro-N-isopropyl-2-((4-(7-(((2S,5R)-5-((4-methylphenyl)sulfonamido)tetrahydro-2H-pyran-2-yl)methyl)-2,7-diazaspiro[3.5]nonan-2-yl)pyrimidin-5-yl)oxy)benzamide]	< 50	< 1
CCN(C(=O)c1cc(F)ccc1Oc1cncnc1N1CC2(CCN(C[C@@H]3CC[C@@H](NS(=O)(=O)c4ccccc4C)CO3)CC2)C1)C(C)C [Compound 56, N-Ethyl-5-fluoro-N-isopropyl-2-((4-(7-(((2S,5R)-5-((2-methylphenyl)sulfonamido)tetrahydro-2H-pyran-2-yl)methyl)-2,7-diazaspiro[3.5]nonan-2-yl)pyrimidin-5-yl)oxy)benzamide]	< 50	< 1
CCN(C(=O)c1cc(F)ccc1Oc1cncnc1N1CC2(CCN(C[C@@H]3CC[C@@H](NS(=O)(=O)c4cccc(Cl)c4)CO3)CC2)C1)C(C)C [Compound 57, 2-((4-(7-(((2S,5R)-5-((3-Chlorophenyl)sulfonamido)tetrahydro-2H-pyran-2-yl)methyl)-2,7-diazaspiro[3.5]nonan-2-yl)pyrimidin-5-yl)oxy)-N-ethyl-5-fluoro-N-isopropylbenzamide]	< 50	< 1
CCN(C(=O)c1cc(F)ccc1Oc1cncnc1N1CC2(CCN(C[C@@H]3CC[C@@H](NS(=O)(=O)c4cccc(C)c4)CO3)CC2)C1)C(C)C [Compound 60, N-ethyl-5-fluoro-N-isopropyl-2-((4-(7-(((2S,5R)-5-((3-methylphenyl)sulfonamido)tetrahydro-2H-pyran-2-yl)methyl)-2,7-diazaspiro[3.5]nonan-2-yl)pyrimidin-5-yl)oxy)benzamide]	< 50	< 1
CCN(C(=O)c1cc(F)ccc1Oc1cncnc1N1CC2(CCN(C[C@@H]3CC[C@@H](NS(=O)(=O)c4ccc(Cl)cc4)CO3)CC2)C1)C(C)C [Compound 61, 2-((4-(7-(((2S,5R)-5-((4-Chlorophenyl)sulfonamido)tetrahydro-2H-pyran-2-yl)methyl)-2,7-diazaspiro[3.5]nonan-2-yl)pyrimidin-5-yl)oxy)-N-ethyl-5-fluoro-N-isopropylbenzamide]	< 50	< 1
CCN(C(=O)c1cc(F)ccc1Oc1cncnc1N1CC2(CCN(C[C@@H]3CC[C@@H](NS(=O)(=O)C4CCOCC4)CO3)CC2)C1)C(C)C [Compound 67, N-Ethyl-5-fluoro-N-isopropyl-2-((4-(7-(((2S,5R)-5-((tetrahydro-2H-pyran)-4-sulfonamido)tetrahydro-2H-pyran-2-yl)methyl)-2,7-diazaspiro[3.5]nonan-2-yl)pyrimidin-5-yl)oxy)benzamide]	< 50	< 1
